Results published in PMC10507043, “Metabolite interactions in the bacterial Calvin cycle and implications for flux regulation” (Communications Biology, 2023).

Columns and labels:
Assay type in all cases: biochemical
syn-F/SBPase [1] = molecular target: T1, syn-F/SBPase (Synechocystis sp. PCC 6803, UniProt P73922, R194H); assay: Malachite Green phosphate release, inhibition; conditions: substrate fructose-1,6-bisphosphate; AMP-insensitive variant
T1 construct: gene slr2094; recombinant, codon-optimised, pET-28a(+), E. coli BL21, HisTrap purified; homotetramer
T1 sequence (P73922 whole entry R194H): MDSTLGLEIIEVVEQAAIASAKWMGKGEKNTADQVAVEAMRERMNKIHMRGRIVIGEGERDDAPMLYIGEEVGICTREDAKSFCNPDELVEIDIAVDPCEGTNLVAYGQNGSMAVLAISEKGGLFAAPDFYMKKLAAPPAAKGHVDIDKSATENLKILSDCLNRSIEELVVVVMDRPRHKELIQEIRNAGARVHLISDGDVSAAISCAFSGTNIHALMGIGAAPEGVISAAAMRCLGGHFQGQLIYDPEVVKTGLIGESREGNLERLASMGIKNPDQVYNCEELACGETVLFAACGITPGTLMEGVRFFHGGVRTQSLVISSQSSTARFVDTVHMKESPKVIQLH

cn-F/SBPase = molecular target: T2, cn-F/SBPase (Cupriavidus necator, UniProt P19912); assay: Malachite Green phosphate release, Hill fit; conditions: 50 mM Tris-HCl, 15 mM MgCl2, 10 mM DTT, 30 °C; no added metabolite
T2 construct: gene fbp3; recombinant, codon-optimised, pET-28a(+), E. coli BL21, HisTrap purified
T2 sequence (P19912 1-364): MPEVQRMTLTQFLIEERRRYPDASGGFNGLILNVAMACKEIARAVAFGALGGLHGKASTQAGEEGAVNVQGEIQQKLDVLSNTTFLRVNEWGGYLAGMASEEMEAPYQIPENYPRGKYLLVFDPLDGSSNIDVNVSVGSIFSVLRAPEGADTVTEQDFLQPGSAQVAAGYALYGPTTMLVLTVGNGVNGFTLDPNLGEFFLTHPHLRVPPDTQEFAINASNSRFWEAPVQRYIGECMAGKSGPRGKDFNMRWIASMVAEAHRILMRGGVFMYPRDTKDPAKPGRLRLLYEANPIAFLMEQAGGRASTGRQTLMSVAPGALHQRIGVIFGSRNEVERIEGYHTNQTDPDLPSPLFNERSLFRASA

syn-F/SBPase [2] = molecular target: T3, syn-F/SBPase (Synechocystis sp. PCC 6803, UniProt P73922); assay: Malachite Green phosphate release, Hill fit; conditions: 50 mM Tris-HCl, 15 mM MgCl2, 10 mM DTT, 30 °C; no added metabolite
T3 construct: gene slr2094; recombinant, codon-optimised, pET-28a(+), E. coli BL21, HisTrap purified; homotetramer
T3 sequence (P73922 1-345): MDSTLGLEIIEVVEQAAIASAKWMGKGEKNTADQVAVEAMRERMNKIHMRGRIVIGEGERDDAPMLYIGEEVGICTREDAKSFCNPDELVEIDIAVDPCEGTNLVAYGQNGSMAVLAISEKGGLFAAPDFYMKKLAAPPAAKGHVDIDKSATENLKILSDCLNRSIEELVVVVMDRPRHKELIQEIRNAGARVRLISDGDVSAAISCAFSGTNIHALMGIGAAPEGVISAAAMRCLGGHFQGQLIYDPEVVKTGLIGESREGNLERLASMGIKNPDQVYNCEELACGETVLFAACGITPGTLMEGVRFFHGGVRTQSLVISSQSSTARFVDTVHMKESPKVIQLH

cn-TKT [3] = molecular target: T4, cn-TKT (Cupriavidus necator, UniProt P21726); assay: alcohol dehydrogenase-coupled NADH assay, inhibition; conditions: 1 mM dihydroxyacetone phosphate, glycylglycine pH 7.5, thiamine pyrophosphate, Mg2+
T4 construct: gene cbbTP; recombinant from genomic DNA, pET-28a(+), E. coli BL21, HisTrap purified
T4 sequence (P21726 1-670): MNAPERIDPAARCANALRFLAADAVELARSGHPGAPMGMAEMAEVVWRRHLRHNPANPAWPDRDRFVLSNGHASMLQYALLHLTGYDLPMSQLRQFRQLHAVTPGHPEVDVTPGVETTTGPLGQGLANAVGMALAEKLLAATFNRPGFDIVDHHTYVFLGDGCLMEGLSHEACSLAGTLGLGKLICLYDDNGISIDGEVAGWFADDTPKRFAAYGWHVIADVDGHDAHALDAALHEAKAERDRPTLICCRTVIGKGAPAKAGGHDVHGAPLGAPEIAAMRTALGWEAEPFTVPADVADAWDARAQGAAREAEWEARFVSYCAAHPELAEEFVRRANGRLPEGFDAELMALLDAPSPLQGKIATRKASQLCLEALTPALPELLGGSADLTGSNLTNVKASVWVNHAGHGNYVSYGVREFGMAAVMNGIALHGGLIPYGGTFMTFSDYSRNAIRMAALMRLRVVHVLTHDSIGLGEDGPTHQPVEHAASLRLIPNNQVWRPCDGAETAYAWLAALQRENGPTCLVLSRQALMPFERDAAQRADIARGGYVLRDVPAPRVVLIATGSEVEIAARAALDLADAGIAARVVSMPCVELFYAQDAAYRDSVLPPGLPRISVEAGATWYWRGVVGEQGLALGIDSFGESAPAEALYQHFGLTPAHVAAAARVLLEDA

syn-TKT [4] = molecular target: T5, syn-TKT (Synechocystis sp. PCC 6803, UniProt P73282); assay: as above; conditions: 1 mM AMP, glycylglycine pH 7.5, thiamine pyrophosphate, Mg2+
T5 construct: gene tktA; recombinant from genomic DNA, pET-28a(+), E. coli BL21, HisTrap purified
T5 sequence (P73282 1-670): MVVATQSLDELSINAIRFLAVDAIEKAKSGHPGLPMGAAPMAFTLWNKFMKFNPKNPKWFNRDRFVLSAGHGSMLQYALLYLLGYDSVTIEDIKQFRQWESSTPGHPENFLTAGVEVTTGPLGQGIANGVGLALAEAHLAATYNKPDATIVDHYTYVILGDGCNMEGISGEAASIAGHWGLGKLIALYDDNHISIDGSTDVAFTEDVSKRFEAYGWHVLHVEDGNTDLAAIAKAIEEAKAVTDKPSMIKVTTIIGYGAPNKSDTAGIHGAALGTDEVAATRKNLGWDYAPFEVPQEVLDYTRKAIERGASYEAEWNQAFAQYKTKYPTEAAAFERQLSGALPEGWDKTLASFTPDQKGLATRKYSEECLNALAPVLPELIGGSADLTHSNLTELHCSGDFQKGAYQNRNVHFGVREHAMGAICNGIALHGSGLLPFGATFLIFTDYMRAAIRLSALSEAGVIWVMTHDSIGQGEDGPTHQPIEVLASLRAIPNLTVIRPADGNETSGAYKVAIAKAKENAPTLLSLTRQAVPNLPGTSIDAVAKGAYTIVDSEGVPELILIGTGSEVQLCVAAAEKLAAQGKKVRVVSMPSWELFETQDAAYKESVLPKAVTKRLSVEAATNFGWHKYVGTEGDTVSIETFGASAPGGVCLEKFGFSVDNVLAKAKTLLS

syn-TKT [5] = molecular target: T5, syn-TKT; assay: alcohol dehydrogenase-coupled NADH consumption at […] nm; conditions: 100 mM L-erythrulose, 2 mM thiamine pyrophosphate, 5 mM MgCl2, 100 mM glycylglycine pH 7.5; no added metabolite
cn-TKT [6] = molecular target: T4, cn-TKT; assay: as above; conditions: 100 mM L-erythrulose, 2 mM thiamine pyrophosphate, 5 mM MgCl2, 100 mM glycylglycine pH 7.5; no added metabolite
syn-F/SBPase [7] = molecular target: T1, syn-F/SBPase; assay: Malachite Green phosphate release, activation; conditions: substrate fructose-1,6-bisphosphate; AMP-insensitive variant

## NC(=O)C1=CN([C@@H]2O[C@H](COP(=O)(O)OP(=O)(O)OC[C@H]3O[C@@H](n4cnc5c(N)ncnc54)[C@H](OP(=O)(O)O)[C@@H]3O)[C@@H](O)[C@H]2O)C=CC1 [NADPH]
syn-F/SBPase [1]
  Malachite Green phosphate release, inhibition: This mutant lost AMP sensitivity but retained sensitivity to both GAP activation and NADPH inhibition

## O=P(O)(O)OC[C@H]1OC(O)(COP(=O)(O)O)[C@@H](O)[C@@H]1O (some centres unmarked) [fructose-1,6-bisphosphate]
cn-F/SBPase
  KM: Initial rates of syn-F/SBPase and cn-F/SBPase were measured at different substrate concentrations
syn-F/SBPase [2]
  KM: activity on the substrate fructose-1,6-bisphosphate was screened using Malachite Green (MG) detection

## O=C(CO)COP(=O)(O)O [dihydroxyacetone phosphate]
cn-TKT [3]
  alcohol dehydrogenase-coupled NADH assay, inhibition: AMP and dihydroxyacetone phosphate, which specifically reduced the activity of syn-TKT and cn-TKT, respectively

## Nc1ncnc2c1ncn2[C@@H]1O[C@H](COP(=O)(O)O)[C@@H](O)[C@H]1O [AMP]
syn-TKT [4]
  alcohol dehydrogenase-coupled NADH assay, inhibition: AMP and dihydroxyacetone phosphate, which specifically reduced the activity of syn-TKT and cn-TKT, respectively

## O=P(O)(O)OC[C@H]1OC(O)[C@H](O)[C@@H]1O (stereo partly drawn) [D-ribose-5-phosphate]
syn-TKT [5]
  KM: conversion of D-ribose-5-phosphate and L-erythrulose to sedoheptulose-7-phosphate and glycolaldehyde was measured
cn-TKT [6]
  KM: conversion of D-ribose-5-phosphate and L-erythrulose to sedoheptulose-7-phosphate and glycolaldehyde was measured

## O=C[C@H](O)COP(=O)(O)O [GAP, glyceraldehyde-3-phosphate]
syn-F/SBPase [7]
  Malachite Green phosphate release, activation: This mutant lost AMP sensitivity but retained sensitivity to both GAP activation and NADPH inhibition
